Data from patent US6103766A, “Phenylsulfonamide-phenylethylamines useful as dopamine receptors” (Pharmacia & Upjohn Company, priority 1999, dated 2000).
“And” between values parts separate entries of the source, which are not always exact repeats. Equal values may be shown once. Read-outs that look alike come from different tables or passages of the source.

How the values were obtained:
dopamine D3 receptor = target: T1, dopamine D3 receptor (Rattus norvegicus, UniProt P19020); assay: Competition binding at cloned rat dopamine D3 receptor (D3-DOP-CLONE) with [3H]-spiperone; conditions: cloned rat receptor in CHO-K1 cells, [3H]-spiperone (107 Ci/mmol, 0.5 nM), eleven dilutions
T1 construct: expressed in transfected cells; host or cells: CHO-K1
T1 sequence (P19020 whole entry): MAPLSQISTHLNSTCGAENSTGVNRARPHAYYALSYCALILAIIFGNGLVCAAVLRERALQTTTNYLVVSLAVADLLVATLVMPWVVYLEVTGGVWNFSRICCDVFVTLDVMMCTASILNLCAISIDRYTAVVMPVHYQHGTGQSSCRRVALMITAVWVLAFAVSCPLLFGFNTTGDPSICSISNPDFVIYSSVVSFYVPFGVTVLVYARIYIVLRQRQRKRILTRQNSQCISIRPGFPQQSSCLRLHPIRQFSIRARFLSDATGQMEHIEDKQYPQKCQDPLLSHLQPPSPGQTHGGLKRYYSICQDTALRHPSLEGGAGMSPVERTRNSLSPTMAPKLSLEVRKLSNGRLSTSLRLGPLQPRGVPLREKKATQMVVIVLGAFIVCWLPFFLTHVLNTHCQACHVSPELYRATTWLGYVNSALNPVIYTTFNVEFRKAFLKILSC
Method: (§1) Competition binding experiments employed eleven dilutions of test compounds of Formula I competing with [^3 H]-5-(dipropylamino)-5,6-dihydro-4H-imidazo(4,5,1-ij)quinolin-2(1H)-one (R-enantiomer) ("86170") (62 Ci/mmol, 2nM) and [^3 H]-spiperone ("SPI") (107 Ci/mmol, 0.5 nM) for D2 and D3 binding sites, respectively. (Lahti, R. A., Eur. J. Pharmacol., 202, 289 (1991)) In each experiment, cloned rat receptors expressed in CHO-K1 cells were used. (Chio, C. L., Nature, 343, 266 (1990); and Huff, R. M., Mol. Pharmacol. 45, 51-60 (1993)).

dopamine D2 receptor = target: T2, dopamine D2 receptor (Rattus norvegicus, UniProt P61169); assay: Competition binding at cloned rat dopamine D2 receptor (D2-DOP-CLONE) with [3H]-86170; conditions: cloned rat receptor in CHO-K1 cells, [3H]-86170 (62 Ci/mmol, 2 nM), eleven dilutions, read-out: Ki (Receptor binding, IC50 values)
T2 construct: expressed in transfected cells; host or cells: CHO-K1
T2 sequence (P61169 whole entry): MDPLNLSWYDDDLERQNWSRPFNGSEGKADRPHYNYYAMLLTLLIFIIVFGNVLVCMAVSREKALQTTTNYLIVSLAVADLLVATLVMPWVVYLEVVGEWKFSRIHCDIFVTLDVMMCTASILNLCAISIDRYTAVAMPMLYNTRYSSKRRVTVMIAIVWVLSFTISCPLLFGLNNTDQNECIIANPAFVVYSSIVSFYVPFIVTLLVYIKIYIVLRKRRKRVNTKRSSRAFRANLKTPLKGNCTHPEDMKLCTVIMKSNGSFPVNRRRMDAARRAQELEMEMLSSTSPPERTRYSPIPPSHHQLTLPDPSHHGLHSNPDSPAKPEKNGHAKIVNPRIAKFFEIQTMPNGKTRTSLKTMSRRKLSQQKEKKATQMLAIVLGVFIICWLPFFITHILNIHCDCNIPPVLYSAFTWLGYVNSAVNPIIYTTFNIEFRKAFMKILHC
Method: as §1

[1] = Ki (Receptor binding, IC50 values)
[2] = read-out: Ki (Receptor binding, IC50 values)

Ki (dopamine D3 receptor; [2])	SMILES	Ki (dopamine D3 receptor; [1]) [nM]	Ki (dopamine D2 receptor) [nM]
28 nM	CCCNCCc1ccc(NS(=O)(=O)c2ccc(OC(F)(F)F)cc2)cc1 [Example 5, 2-[4-(4-trifluoromethoxybenzenesulfonamido)phenyl]ethyl-1-propylamine]		2390
165 nM	CCCNCCc1ccc(NS(=O)(=O)c2ccc(F)cc2Cl)cc1 [Example 6, 2-[4-(2-chloro-4-fluorobenzenesulfonamido)phenyl]ethyl-1-propylamine]		2180
33 nM	CCCNCCc1ccc(NS(=O)(=O)c2ccc(C(F)(F)F)cc2)cc1 [Example 8, 2-[4-[(4-trifluoromethyl)benzenesulfonamido]phenyl]ethyl-1-propylamine]		1530
14 nM and 26 nM	CCCNCCc1ccc(NS(=O)(=O)c2ccc(Cl)cc2Cl)cc1 [Example 3, 2-[4-(2,4-dichlorobenzenesulfonamido)phenyl]ethyl-1-propylamine]		760

Second part, the compound before the results:

SMILES	Ki (dopamine D3 receptor; [2])	Ki (dopamine D3 receptor; [1]) [nM]	Ki (dopamine D2 receptor) [nM]
CCCNCCc1cccc(NS(=O)(=O)c2ccccc2F)c1 [Example 9, 2-[3-(2-fluorobenzenesulfonamido)phenyl]ethyl-1-propylamine]		54	645
CCCN(CCC)CCc1ccc(NS(=O)(=O)c2ccc(NC(C)=O)cc2)cc1 [Example 2, 2-[4-(4-acetamidobenzenesulfonamido)phenyl]ethyl-1-dipropylamine]	34 nM		1070
CCCN(CCC)CCc1ccc(NS(=O)(=O)c2ccc(Cl)cc2)cc1 [Example 1, 2-[4-(4-chlorobenzenesulfonamido)phenyl]ethyl-1-dipropylamine]		3.7	629
CCCNCCc1ccc(NS(=O)(=O)c2ccc(Br)cc2)cc1 [Example 7, 2-[4-(4-bromobenzenesulfonamido)phenyl]ethyl-propylamine]		14	623
CCCNCCc1ccc(NS(=O)(=O)c2ccc(Cl)cc2)cc1 [Example 4, 2-[4-(4-chlorobenzenesulfonamido)phenyl]ethyl-1-propylamine]		18	677
CCCNCCc1cccc(NS(=O)(=O)c2cccc(Cl)c2)c1 [Example 10, 2-[3-(3-chlorobenzenesulfonamido)phenyl]ethyl-1-propylamine]	111 nM		1080
